Source: patent US20130123287A1, “CONTROL AGENT FOR SOFT ROT AND CONTROL METHOD FOR THE SAME” (ISHIHARA SANGYO KAISHA, LTD., priority 2010, published 2013)

What was measured:
[1] = system: soft rot of Chinese cabbage; assay: Test for controlling soft rot of Chinese cabbage, Example 4 / Comparative Example 4 (field, cultivar Ouraku 60); format: in vivo; settings: 150 L/10 a sprayed onto planting holes before planting, 49 days after start
Source text: Frequency of the disease=[sigma(number of plants with the onset of the disease at each severity level*index of the onset of the disease)/(plants examined*4)]*100
Disease control value=[1-(frequency of the disease in the treated lot/frequency of the disease in the non-treated lot)]*100
• 0: No onset • 1: Onset in some of outer leaves (shippable) • 2: Onset in outer leaves and some of head leaves (by removing damaged parts, the resulting cabbage can be shipped as small cabbage but is ranked as grade B). • 3: Most of head leaves are inflicted with the onset of the disease or with severer damages (not shippable) • 4: Whole cabbage plant is inflicted with the onset of the disease and is dead.
442 g/lkresoxim-methyl (STROBY FLOWABLE [trade name], manufactured by BASF) was adjusted to 500 g ai/10a (0.5 g/m^2, 1131 ml Product/10a) as the amount of the active ingredient and to 150 L/10a as the volume of diluent water.
70% w/w thiophanate methyl (Topsin M WF [trade name], manufactured by Nippon Soda Co., Ltd.) was adjusted to 1000 g ai/10a (1 g/m^2, 1429 g Product/10a) as the amount of the active ingredient and to 150 L/10a as the volume of diluent water.
50% w/w boscalid (Cantus DF [trade name], manufactured by BASF) was adjusted to 500 g ai/10a (0.5 g/m^2; 1000 g Product/10a) as the amount of the active ingredient and to 150 L/10a as the volume of diluent water.
50% w/w procymidone (Sumilex WP [trade name], manufactured by Sumitomo Chemical Agro) was adjusted to 500 g ai/10a (0.5 g/m^2, 1000 g Product/10a) as the amount of the active ingredient and to 150 L/10a as the volume of diluent water.
400 g/l iprodione (Rovral 500 Aqua [trade name], manufactured by Bayer Crop Science Co., Ltd.) was adjusted to 500 g ai/10a (0.5 g/m^2, […] Product/10a) as the amount of the active ingredient and to 150 L/10a as the volume of diluent water.
200 g/l fludioxonil (Seibia FLOWABLE [trade name], manufactured by Syngenta Japan K.K.) was adjusted to 500 g ai/10a (0.5 g/m^2, 2500 ml Product/10a) as the amount of the active ingredient and to 150 L/10a as the volume of diluent water.
400 g/l mepanipyrim (Flupika PLOWABLE [trade name], manufactured by Nippon Soda Co., Ltd.) was adjusted to 500 g ai/10a (0.5 g/m^2, 1250 ml Product/10a) as the amount of the active ingredient and to 150 L/10a as the volume of diluent water.
After spreading an agricultural mulch-sheet and opening planting holes (diameter of about 5 cm) for permanent planting through the mulch-sheet, the spray solutions prepared as described above were sprayed onto the planting holes such that the amount of treated active ingredient of each spray solution was 0.5 g/m^2 (150 L per 10a), followed by air-drying; subsequently, seedlings of Chinese cabbage (cultivar: Ouraku 60) grown for 4 weeks in cell mold trays (128 holes/nursery box) were planted such that 30 seedlings were planted in each test lot having an area of 2.5 m^2 with two replications.
Preparation was performed by diluting a chemical solution (Agrimycin WP100 [trade name] manufactured by Pfizer) containing oxytetracycline at 1.5% and streptomycin sulfate salt at 18.8% with water to 1/1500.
In a field spread with the agricultural mulch-sheet, Chinese cabbage seedlings (cultivar: Ouraku 60) grown by the same method as in Example 4 were planted by the same method as in Example 4, for spraying the spray solution prepared above in (1) (at each spray volume of 300 L/10a) twice (28 days and 42 days after the planting of the seedlings) on the stems and leaves.
49 days after the start of the tests, all the plants in each lot were examined about the severity level of the disease to assess the frequency of the disease and the disease control value. Herein, the frequency of the disease and the disease control value were determined in the same manner as described above. Because soft rot is a disease with damages hardly controlled, herein, even a chemical at the level C determined by the tests of the effects can practically be used.

[2] = system: bacteria causing the soft rot (Erwinia carotovora); assay: Inhibition test of growth of bacteria causing soft rot, Reference Test Example 4; format: cell-based; settings: for formed colonies (growth state), grade: PSA medium, 27 degrees Celsius, 2 days; for inhibition of growth of Erwinia carotovora (in words): active ingredient concentration of 1,000 ppm
Source text: An inhibition test of the growth of bacteria causing the soft rot was done, when a control agent was directly applied to the bacteria causing the soft rot. A given volume of each pesticide of kresoxim-methyl (STROBY DF [trade name] manufactured by BASF), thiophanate methyl (Topsin M WP [trade name], manufactured by Nippon Soda Co., Ltd), boscalid (Cantus DF [trade name] manufactured by BASF), procymidone (Sumilex WP [trade name] manufactured by Sumitomo Chemical Agro Co., Ltd.) and streptomycin (Mycin Wettable powder [trade name] manufactured by Hokko Chemical Industry Co., Ltd.) was added together with a suspension of the bacteria causing the soft rot (Erwinia carotovora) to a preliminarily dissolved PSA culture medium (55 degrees Celsius) for subsequent thorough agitation, which was then spread on a plate for culturing at 27 degrees Celsius for 2 days, to examine the growth state. Subsequently, the formed colonies were examined according to the following three grades. • +: at the same level as the level of non-treated lot. Plus or minus: apparently less than the colonies of the non-treated lot. • −: almost no colonies observed.

[3] = system: bacteria causing the soft rot (Erwinia carotovora); assay: Inhibition test of growth of bacteria causing soft rot, Reference Test Example 6; format: cell-based; settings: for formed colonies (growth state), grade: PSA medium, 27 degrees Celsius, 3 days; for inhibition of growth of Erwinia carotovora (in words): active ingredient concentration of 1,000 ppm
Source text: (§1) An inhibition test of the growth of bacteria causing the soft rot was done, when a control agent was directly applied to the bacteria causing the soft rot. A given volume of each pesticide of fludioxonil (Seibia FL [trade name] manufactured by Syngenta Japan K.K.), iminoctadine albesilate salt (Bellkute WP [trade name], manufactured by Nippon Soda Co., Ltd.), iprodione (Rovral WP [trade name] manufactured by Bayer Crop Science Co., Ltd.), and streptomycin (Mycin Wettable powder [trade name] manufactured by Hokko Chemical Industry Co., Ltd.) was added together with a suspension of the bacteria causing the soft rot (Erwinia carotovora) to a preliminarily dissolved PSA culture medium (55 degrees Celsius) for subsequent thorough agitation, which was then spread on a plate for culturing at 27 degrees Celsius for 3 days, to examine the growth state. Subsequently, the formed colonies were examined according to the following three grades. • +: at the same level as the level of non-treated lot.
(§2) Plus or minus: apparently less than the colonies of the non-treated lot. • −: almost no colonies observed.

[4] = system: bacteria causing the soft rot (Erwinia carotovora); assay: Inhibition test of growth of bacteria causing soft rot, Reference Test Example 5; format: cell-based; settings: for formed colonies (growth state), grade: PSA medium, 27 degrees Celsius, 2 days
Experimental: as §1, with “mepanipyrim (Flupika” for “fludioxonil (Seibia”, “by” for “by Syngenta Japan K.K.), iminoctadine albesilate salt (Bellkute WP [trade name], manufactured by”, “Ltd.)” for “Ltd.), iprodione (Rovral WP [trade name] manufactured by Bayer Crop Science Co., Ltd.),”, “2” for “3”
as §2

| SMILES | Determination of effect ([1]; 1000 g ai/10 a) | formed colonies (growth state), grade ([2]; 100 ppm active ingredient) | formed colonies (growth state), grade ([2]; 500 ppm active ingredient) | formed colonies (growth state), grade ([2]; 1000 ppm active ingredient) | inhibition of growth of Erwinia carotovora (in words) [2] | Determination of effect ([1]; 500 g ai/10 a) | formed colonies (growth state), grade ([3]; 100 ppm active ingredient) | formed colonies (growth state), grade ([3]; 500 ppm active ingredient) | formed colonies (growth state), grade ([3]; 1000 ppm active ingredient) | inhibition of growth of Erwinia carotovora (in words) [3] | formed colonies (growth state), grade ([4]; 100 ppm active ingredient) | formed colonies (growth state), grade ([4]; 500 ppm active ingredient) | formed colonies (growth state), grade ([4]; 1000 ppm active ingredient) | inhibition of growth of Erwinia carotovora (in words) ([4]; active ingredient concentration of 1,000 ppm) |
| --- | --- | --- | --- | --- | --- | --- | --- | --- | --- | --- | --- | --- | --- | --- |
| COC(=O)NC(=S)Nc1ccccc1NC(=S)NC(=O)OC [Thiophanate methyl, dimethyl=4,4′-(o-phenylene)bis(3-thioallophanate)] | B (B: Effective (41 to 60 disease control value)) | +, + | +, + | +, + | never inhibited the growth |  |  |  |  |  |  |  |  |  |
| CC(C)NC(=O)N1CC(=O)N(c2cc(Cl)cc(Cl)c2)C1=O [Iprodione, 3-(3,5-dichlorophenyl)-N-isopropyl-2,4-dioxoimidazolizine-1-carboxamide] |  |  |  |  |  | B (B: Effective (41 to 60 disease control value)) | +, + | +, + | +, + | never inhibited the growth |  |  |  |  |
| N#Cc1c[nH]cc1-c1cccc2c1OC(F)(F)O2 [Fludioxonil, 4-(2,2-difluoro-1,3-benzodioxol-4-yl)pyrrole-3-carbonitrile] |  |  |  |  |  | C (C: Effective at low level (21 to 40 disease control value)) | +, + | +, + | +, + | never inhibited the growth |  |  |  |  |
| CC#Cc1cc(C)nc(Nc2ccccc2)n1 [Mepanipyrim, N-(4-methyl-6-prop-1-ynylpyrimidin-2-yl)aniline] |  |  |  |  |  | B (B: Effective (41 to 60 disease control value)) |  |  |  |  | +, + | +, + | +, + | never inhibited the growth |
| O=C(Nc1ccccc1-c1ccc(Cl)cc1)c1cccnc1Cl [Boscalid, 2-chloro-N-(4′-chlorobiphenyl-2-yl)nicotinamide] |  | +, + | +, + | +, + | never inhibited the growth | C (C: Effective at low level (21 to 40 disease control value)) |  |  |  |  |  |  |  |  |
| CC12CC1(C)C(=O)N(c1cc(Cl)cc(Cl)c1)C2=O (stereo not drawn) [Procymidone, N-(3,5-dichlorophenyl)-1,2-dimethylcyclopropane-1,2-dicarboximide] |  | +, + | +, + | +, + | never inhibited the growth | A (A: Highly effective (61 or larger disease control value)) |  |  |  |  |  |  |  |  |
